Experimental data as given in patent US11999720B2, “Pyrazolylacylpyrazoline compounds and method for treating pain” (THE TRUSTEES OF INDIANA UNIVERSITY, priority 2018, dated 2024).
“Also recorded” adds a separate entry of the source. Where two headings read alike, the source gives them in different places.

What was measured:
CaVα1CaVβ3 interaction = target: T1, CaVα1CaVβ3 interaction (Rattus norvegicus, UniProt P54287); assay: fluorescence polarization assay, inhibition constant; format: binding; settings: for Ki: fluorescence polarization assay
T1 construct: made in house; host or cells: E. coli BL21(DE3)
Protocol: The plasmid of pET28a-CaV2.2β3 subunit was transformed into competent E. Coli BL21(DE3) strain. Culture was grown in LB medium at 37° C. to an OD600 of approximately 0.6 and then induced with 0.5 mM IPTG at 16° C. for 16 h. Cells were collected by centrifugation and lysed by microfluidizer in lysis buffer (phosphate buffer, pH 7.6, 2 mM DTT). The His-CaVβ3 protein was purified at 4° C. using Ni-IMAC chromatography (His-Trap HP, GE Healthcare) and eluted with 500 mM imidazole in lysis buffer with a gradient method. After the fractions consisted of His-CaVβ3 was combined and concentrated, the protein was further purified using size exclusion chromatography (Superdex 200 pg, GE Healthcare) in PBS with 2 mM DTT.
Compound 6 forms a salt bridge interaction with Arg-307 through a benzoic acid moiety. […] Arg-307 was mutated to alanine.

[1] = system: T2, CaV2.2 channels in HEK-CaV2.2 cells (Rattus norvegicus); assay: whole cell patch-clamp, CaV2.2 currents in HEK-CaV2.2 cells; format: cell-based
T2 construct: expressed in transfected cells
Protocol: The G-V curves are shown.
HEK-CaV2.2 cells were pretreated with various concentrations of compound 14 for 48 hours. CaV2.2 currents were acquired during 20-ms depolarizing pulses, and the current densities were calculated as a ratio of the peak current amplitude and each cell capacitance (0.1 μM, n=6; 1 μM, n=7; 10 μM, n=8; 50 μM, n=12). The line is the fit of the data to the four-parameter logistic function.
EK-CaV2.2 cells were pretreated with the indicated compounds for 48 hours. *** corresponds to […].
FIGS. 8 and 9 show the effects of 2 and 14 on the voltage dependence of activation of CaV2.2 channels in HEK-CaV2.2 cells pretreated with the vehicle or the indicated compounds for 48 hours. […] The gray vertical lines are the error bars (S.E.M.).
FIGS. 10 and 11 show acute effects of DMSO and 14 on the voltage dependence of activation of CaV2.2 channels in HEK-CaV2.2 cells. […] The gray vertical lines are the error bars (S.E.M.). “ns”—stands for not significant.
The whole cell patch-clamp technique was used to record CaV2.2 currents in HEK-CaV2.2 cells and rat DRG neurons. HEK293 cells that stably expressed rat N-type CaV2.2α1B, rat CaVβ3, and rat […] were utilized. Cells were grown in Dulbecco's modified Eagle's medium (DMEM) supplemented with 10% FBS, 50 units penicillin, 50 μg/ml streptomycin, 5 μg/ml blasticidin, 5 μg/ml hydromycin and 25 μg/ml zeozin at 37° C. in a humidified atmosphere of 95% air and 5% CO2. For patch clamp experiments, HEK-CaV2.2 cells were plated on glass coverslips and were cultured for 24-48 h. All animal procedures were performed in accordance to the NIH guide and were approved by the Indiana University School of Medicine Institutional Animal Care and Use Committee. Young adult Sprague Dawley rats were anesthetized (3% isoflurane) and then decapitated. The spinal column was removed, cut open, and dorsal root ganglia were harvested from the Lumbar L4-L6 vertebral levels. The ganglia were incubated in DMEM containing collagenase (1 mg/ml, Worthington: LS04194) and protease (1 mg/ml, Worthington: LS02104) for 30-60 minutes, and DRG neurons were dissociated by triturating in DMEM supplemented with 10% FBS. The isolated DRG neurons were plated on glass coverslips coated with growth factor reduced Matrigel (Thermo Fisher Scientific, Waltham, MA) and were cultured in Eagle's minimum essential medium (Invitrogen, CA) supplemented with 0.2% BSA and 20 ng/ml NGF-2.5S (BD Biosciences, Bedford, MA) at 37° C. in a water-jacketed 5% CO2 incubator overnight for the patch-clamp experiments.

[2] = system: tibial nerve injury (TNI) model of neuropathic pain; assay: tibial nerve injury (TNI) model of neuropathic pain, von Frey withdrawal threshold; format: in vivo, rat
Protocol: Pathogen-free, adult, female Sprague Dawley (weight at testing 150-200 g; Harlan-Sprague-Dawley, Indianapolis, IN) were housed in a climate-controlled room on a 12-hour light/dark cycle and were allowed to have food and water ad libitum. All procedures were approved by the Indiana University Animal Care and Use Committee and conformed to the guidelines of the National Institutes of Health (publication no. 80-23, 1966) for the use of laboratory animals. All behavioral experiments were conducted by experimenters blinded to the treatment conditions and compound identity. The experiments were replicated a minimum of 2 times with independent cohorts of animals.
For in vivo studies, the inventive compounds were freshly prepared saline (0.9%) on the day of the experiment. Morphine sulfate salt (Sigma-Aldrich, St. Louis, MO) was freshly prepared on the day of the experiment in saline. […]
The inventive compounds were assessed with the tibial nerve injury (TNI) model of neuropathic pain 28 days after surgery. Using isoflurane anesthesia (4% induction and 2% maintenance), the right sciatic nerve was isolated under aseptic surgical conditions by blunt dissection of the femoral biceps muscle and the tibial nerve was tightly ligated with 5-0 silk and transected distal to the ligation. Additional 2 to 3 mm of distal nerve stump was removed to prevent reinnervation by the proximal nerve. The overlying muscle and skin was then sutured in 2 separate layers. Sham-injured animals were subjected to all preceding procedures with the exception of ligation and transection. All animals were returned to the housing facility and allowed to survive for 28 d. Mechanical stimuli were applied with 7 filaments, each differing in the bending force delivered (10, 20, 40, 60, 80, 100, and 120 mN), and fitted with a flat tip and fixed diameter of 0.2 mm. The filaments were tested in the order of ascending force, with each filament delivered for 1 second. Withdrawal threshold was determined by sequentially increasing and analyzed with Hill equation was fitted to the function (Origin version 6.0; Microcal Software) relating the percentage of indentations eliciting a withdrawal to the force of indentation.

[3] = pharmacokinetics, plasma concentrations by LC-MS/MS after IV and PO administration; format: in vivo, Kunming mice; settings: Kunming, mouse; for half-life: read-out: elimination half-life (converted); for Cmax: read-out: Cmax peak plasma concentration
Protocol: Plasma concentrations at various time points were determined using liquid chromatography tandem mass spectroscopy (LC-MS/MS). For intravenous (IV) administration, compound 14 was formulated as a solution at a final dose of 1 mg/kg.
For oral gavage (PO) administration, compound 14 was formulated as a solution at a final dose of 10 mg/kg. Plasma concentrations at various time points were determined using LC-MS/MS.
PK profiles of compound 14 after intravenous and oral administration was performed in Kunming mice. Plasma concentrations were determined by liquid chromatography tandem mass spectroscopy. Summary of PK properties and plasma concentration measured 1 hour after intravenous or oral administration of 1 or 10 mg/kg compound 14.

T1 sequence (P54287 whole entry): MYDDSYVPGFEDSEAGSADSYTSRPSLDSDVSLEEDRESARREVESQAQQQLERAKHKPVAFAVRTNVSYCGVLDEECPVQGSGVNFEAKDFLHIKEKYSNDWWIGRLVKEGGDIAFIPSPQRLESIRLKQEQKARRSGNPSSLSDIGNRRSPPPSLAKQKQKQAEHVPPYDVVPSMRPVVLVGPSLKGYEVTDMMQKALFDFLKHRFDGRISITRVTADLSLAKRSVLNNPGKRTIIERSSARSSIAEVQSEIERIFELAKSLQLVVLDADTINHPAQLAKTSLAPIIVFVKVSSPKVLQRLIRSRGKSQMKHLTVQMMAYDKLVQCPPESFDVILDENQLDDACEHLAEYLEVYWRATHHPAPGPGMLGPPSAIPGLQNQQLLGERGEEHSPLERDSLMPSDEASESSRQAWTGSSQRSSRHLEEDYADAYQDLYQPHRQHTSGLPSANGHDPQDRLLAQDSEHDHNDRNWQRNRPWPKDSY
T2 sequence (P54287 whole entry): as above

COc1ccc(C2=NN(C(=O)CCC(=O)O)C(c3cn(-c4ccccc4)nc3-c3ccc(C)cc3)C2)cc1 (centres unmarked) [Compound 1] gave a Ki (CaVα1CaVβ3 interaction) of 6.7 ± 0.3 µM.
Work on Cc1ccc(-c2nn(-c3ccccc3)cc2C2CC(c3ccc(-c4ccccn4)cc3)=NN2C(=O)CCC(=O)O)cc1 (centres unmarked) [Compound 4, 4-oxo-4-(1′-phenyl-5-(4-(pyridin-2-yl)phenyl)-3′-(p-tolyl)-3,4-dihydro-1′H,2H-[3,4′-bipyrazol]-2-yl)butanoic acid] yielded a Ki (CaVα1CaVβ3 interaction) of 2.2 ± 0.3 µM.
In the case of COC(=O)c1cccc(C(=O)N2N=C(c3ccc(OC)cc3)CC2c2cn(-c3ccccc3)nc2-c2ccc(C)cc2)c1 (centres unmarked) [Compound 7, methyl 3-(5-(4-methoxyphenyl)-1′-phenyl-3′-(p-tolyl)-3,4-dihydro-1′H,2H-[3,4′-bipyrazole]-2-carbonyl)benzoate], the “inhibition of the CaVα1CaVβ3 interaction” value (CaVα1CaVβ3 interaction; removal of the charge of the benzoic acid moiety) is reported as “complete loss of inhibition”.
Compound COc1ccc(C2=NN(C(=O)c3cccc(C(=O)O)c3)C(c3cn(-c4ccccc4)nc3-c3ccc(Cl)cc3)C2)cc1 (centres unmarked) [Compound 8, 3-(3′-(4-chlorophenyl)-5-(4-methoxyphenyl)-1′-phenyl-3,4-dihydro-1′H,2H-[3,4′-bipyrazole]-2-carbonyl)benzoic acid] has a Ki (CaVα1CaVβ3 interaction) of 1.2 ± 0.1 µM.
With COc1ccc(C2=NN(C(=O)c3cccc(C(=O)O)c3)C(c3cn(-c4ccc(OC)cc4)nc3-c3ccc(C)cc3)C2)cc1 (centres unmarked) [Compound 10, 3-(1′,5-bis(4-methoxyphenyl)-3′-(p-tolyl)-3,4-dihydro-1′H,2H-[3,4′-bipyrazole]-2-carbonyl)benzoic acid] the Ki (CaVα1CaVβ3 interaction) was 3.7 ± 0.2 µM.
With COc1ccc(C2=NN(c3cccc(C(=O)O)c3)C(c3cn(-c4ccccc4)nc3-c3ccc(C)cc3)C2)cc1 (centres unmarked) [Compound 11, 3-(5-(4-methoxyphenyl)-1′-phenyl-3′-(p-tolyl)-3,4-dihydro-1′H,2H-[3,4′-bipyrazol]-2-yl)benzoic acid] the Ki (CaVα1CaVβ3 interaction) was 3.9 ± 0.9 µM.
Work on COc1ccc(C2=NN(C(=O)c3cccc(C(=O)O)c3)C(c3cn(-c4cccnc4)nc3-c3ccc(C)cc3)C2)cc1 (centres unmarked) [Compound 12, 3-(5-(4-methoxyphenyl)-1′-(pyridin-3-yl)-3′-(p-tolyl)-3,4-dihydro-1′H,2H-[3,4′-bipyrazole]-2-carbonyl)benzoic acid] yielded a Ki (CaVα1CaVβ3 interaction) of 5 ± 1.9 µM.
In the case of COc1ccc(C2=NN(C(=O)c3cccc(-c4nnn[nH]4)c3)C(c3cn(-c4ccccc4)nc3-c3ccc(C)cc3)C2)cc1 (centres unmarked) [Compound 14, (3-(1H-tetrazol-5-yl)phenyl)(5-(4-methoxyphenyl)-1′-phenyl-3′-(p-tolyl)-3,4-dihydro-1′H,2H-[3,4′-bipyrazol]-2-yl)methanone], the Ki (CaVα1CaVβ3 interaction) is reported as 2 ± 0.2 µM, the “steady-state inactivation V0.5, inact” value ([1]; 50 μM, pretreated 48 hours) is reported as −52.9±1.3 mV and the IC50 ([1]; pretreated 48 hours, current densities, four-parameter logistic fit, read-out: apparent IC50 for inhibition of CaV2.2 currents) is reported as 31 µM. For the same compound, the “mean half-activation potential V0.5, act” value ([1]; pretreated 48 hours, DMSO 8.7±1.1) was 16.5±1.1 mV, the “reversal of mechanical hypersensitivity (PWT)” value ([2]; 0.1 mg/kg single bolus, 1 and 24 h post-dosing, 4 weeks after TNI) was “significantly reversed mechanical hypersensitivity at both 1 and 24 h post-dosing; also recorded: significantly increased PWTs at both 1 and 24 hours post-injection” and the half-life ([3]; IV, 1 mg/kg) was 17.4 min. The AUC(0-t) ([3]; iv, 1 mg/kg) was 58 ng·h/mL, the Tmax ([3]; iv, 1 mg/kg) was 4.98 min and the Cmax ([3]; iv, 1 mg/kg) was 181 ng/mL. It also gave an AUC(0-t) ([3]; oral gavage (PO), 10 mg/kg) of 636 ng·h/mL, a Tmax ([3]; oral gavage (PO), 10 mg/kg) of 60 min and a Cmax ([3]; oral gavage (PO), 10 mg/kg) of 165 ng/mL. The half-life ([3]; oral gavage (PO), 10 mg/kg) was 119 min.
With COc1ccc(C2=NN(C(=O)c3cccc(C(=O)O)c3)C(c3cn(-c4ccccc4)nc3-c3ccc(-c4ncc[nH]4)cc3)C2)cc1 (centres unmarked) [Compound 15, 3-(3′-(4-(1H-imidazol-2-yl)phenyl)-5-(4-methoxyphenyl)-1′-phenyl-3,4-dihydro-1′H,2H-[3,4′-bipyrazole]-2-carbonyl)benzoic acid] the “half-activation voltage V0.5, act after acute treatment” value ([1]; 50 μM, 5 min incubation, before 6.4±1.9) was 11.4±1.7 mV and the “density of CaV2.2 currents” value ([1]; 50 μM, pretreated 48 hours, depolarizing pulses to 0 mV from holding potential −80 mV, DMSO −74.8±7.0) was −11.1±2.4 pA/pF.
In the case of CN1CC[C@]23c4c5ccc(O)c4O[C@H]2[C@@H](O)C=C[C@H]3[C@H]1C5.O=S(=O)(O)O [morphine, Morphine sulfate salt, reference compound], the “withdrawal threshold to von Frey stimulation” value ([2]; 5 mg/kg systemic, 28 days after TNI) is reported as 32±2.6 mN.
